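Each compound was tested at five concentrations against cells in 96-well plates for 48 hours. Abbreviation: GI50, concentration required for 50% inhibition of growth. At the TGI there is no net growth.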

Among the test systems are A498 renal; NCI-H460 lung; SK-MEL-2 melanoma; TK-10 renal; K-562 leukemia; SF-268 CNS; NCI-H522 lung; NCI-H226 lung; HL-60(TB) leukemia; HCT-116 colon.
Assay in all cases: NCI anticancer screen, dose series, 48 h

For `C/C=C/C/C=C/[C@H](C)C[C@H](O)[C@@H]1C[C@@H]2O[C@H]2/C=C/[C@@H]2OC(C)(C)O[C@H]2/C=C/C[C@H](C)CC(=O)O1`, the GI50 with A498 renal was over 100 µM; in the assay on NCI-H460 lung, 5.65 µM; with SK-MEL-2 melanoma, 39.3 µM; with TK-10 renal it was 51.8 µM; in the assay on K-562 leukemia, 4.79 µM; in the assay on SF-268 CNS it was 10.4 µM. The GI50 in the assay with NCI-H522 lung was 3.6 µM; in the assay on NCI-H226 lung it was 6.08 µM; in the assay on HL-60(TB) leukemia it was 5.6 µM; with HCT-116 colon, 8.85 µM. Moreover, the TGI in the assay with A498 renal, with NCI-H460 lung, in the assay on SK-MEL-2 melanoma, in the assay on TK-10 renal, in the assay with K-562 leukemia and in the assay on SF-268 CNS was over 100 µM in each case. The TGI was 31.9 µM in the assay with NCI-H522 lung, over 100 µM in the assay with NCI-H226 lung, 30.9 µM in the assay with HL-60(TB) leukemia and over 100 µM with HCT-116 colon.

In the case of `CNC(=O)c1cc(Oc2cccc3nc(NC(=O)Nc4cc(C(F)(F)F)cc(C(F)(F)F)c4)ccc23)ccn1`, the GI50 is 1.99 µM with A498 renal; 4.16 µM in the assay with NCI-H460 lung; 12.7 µM with SK-MEL-2 melanoma; 3.22 µM with TK-10 renal; 9.29 µM in the assay with K-562 leukemia; 4.93 µM in the assay with SF-268 CNS. The GI50 in the assay with NCI-H522 lung was 6.65 µM; with NCI-H226 lung it was 4.21 µM; in the assay on HL-60(TB) leukemia, 23.4 µM; in the assay with HCT-116 colon it was 13.8 µM. Also, the TGI in the assay with A498 renal is 5.02 µM; in the assay with NCI-H460 lung, 36.6 µM; with SK-MEL-2 melanoma, 25.6 µM; with TK-10 renal, 11.5 µM; with K-562 leukemia, over 100 µM; with SF-268 CNS, 39.4 µM. For the same molecule, the TGI in the assay with NCI-H522 lung is 35.4 µM; with NCI-H226 lung, 39.8 µM; with HL-60(TB) leukemia it was 77.2 µM; in the assay on HCT-116 colon, 41.8 µM.

As to `C=CC(COC(=O)C(C)(C)OC(C)=O)c1ccc(OC(=O)C(C)C)c(OC)c1` (stereo not given), the TGI is 37.7 µM in the assay with A498 renal; 7.78 µM in the assay with NCI-H460 lung; 25.5 µM in the assay on SK-MEL-2 melanoma; 24.8 µM in the assay on TK-10 renal; over 63.5 µM with K-562 leukemia; over 43.9 µM in the assay with SF-268 CNS. Besides, the TGI is 6.38 µM in the assay with NCI-H522 lung, 49.9 µM in the assay with NCI-H226 lung, over 49 µM in the assay with HL-60(TB) leukemia and over 48.9 µM in the assay on HCT-116 colon.

Regarding `CC(C)(C)c1cc(C(=O)Nc2ccc(C(=O)NCCN)cc2)cc(C(C)(C)C)c1`, the GI50 in the assay on A498 renal was 8.27 µM; with NCI-H460 lung, 1.93 µM; in the assay on SK-MEL-2 melanoma it was 2.15 µM; in the assay with TK-10 renal it was 2.99 µM; in the assay on K-562 leukemia, 1.94 µM; in the assay with SF-268 CNS, 2.03 µM. Moreover, the GI50 with NCI-H522 lung is 2.41 µM; in the assay on NCI-H226 lung, 6.43 µM; in the assay with HL-60(TB) leukemia, 1.9 µM; in the assay with HCT-116 colon, 3.36 µM. Besides, the TGI with A498 renal turned out to be 26 µM; in the assay on NCI-H460 lung, 3.73 µM; in the assay on SK-MEL-2 melanoma, 4.85 µM; in the assay with TK-10 renal, 9.64 µM; with K-562 leukemia, 5.06 µM; with SF-268 CNS, 5.05 µM. Besides, the TGI in the assay on NCI-H522 lung is 7.63 µM; in the assay on NCI-H226 lung, 28.1 µM; with HL-60(TB) leukemia, 3.87 µM; in the assay with HCT-116 colon, 12.7 µM.

The values above are taken from PubChem BioAssay (NCI).
